Experimental data: PubChem BioAssay (NCI)
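Values below derive from 48-hour exposures of cells grown in 96-well plates, with endpoints linearly interpolated between the two concentrations bracketing the appropriate inhibition level. TGI: concentration producing complete growth inhibition.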

How the values were obtained:
Assay in all cases: NCI anticancer screen, dose series, 48 h
OVCAR-5 ovarian = tested on: OVCAR-5 ovarian
M19-MEL melanoma = tested on: M19-MEL melanoma
DMS 273 small cell lung = tested on: DMS 273 small cell lung
SF-268 CNS = tested on: SF-268 CNS
SNB-78 CNS = tested on: SNB-78 CNS
KM20L2 colon = tested on: KM20L2 colon
SNB-75 CNS = tested on: SNB-75 CNS
UACC-62 melanoma = tested on: UACC-62 melanoma
LOX IMVI melanoma = tested on: LOX IMVI melanoma
CAKI-1 renal = tested on: CAKI-1 renal
NCI/ADR-RES ovarian = tested on: NCI/ADR-RES ovarian
T-47D breast = tested on: T-47D breast

SMILES	TGI (OVCAR-5 ovarian)	TGI (M19-MEL melanoma)	TGI (DMS 273 small cell lung)	TGI (SF-268 CNS)	TGI (SNB-78 CNS)	TGI (KM20L2 colon)	TGI (SNB-75 CNS)	TGI (UACC-62 melanoma)	TGI (LOX IMVI melanoma)	TGI (CAKI-1 renal)	TGI (NCI/ADR-RES ovarian)	TGI (T-47D breast)
OCc1ccc(C2CC(c3ccco3)=NN2c2ccccc2)o1 (stereo not drawn)	> 100 µM	> 100 µM	> 100 µM	> 100 µM	> 100 µM	> 100 µM	> 100 µM	> 100 µM	> 100 µM	–	–	–
CC(=O)O[C@]12CCCCCC1C1(O)C(O)CCCC[C@H]12 (stereo partly drawn)	–	> 100 µM	> 100 µM	> 100 µM	> 100 µM	> 100 µM	> 100 µM	> 100 µM	> 100 µM	–	–	–
Nc1ccn(C2OC(CO)C(O)C2O)c(=O)c1 (stereo not drawn)	–	–	> 625 µM	> 625 µM	> 625 µM	> 625 µM	> 625 µM	> 625 µM	446 µM	> 625 µM	> 625 µM	–
COc1c(C(C)C)cc2c3c1OC(=O)[C@@]31CCCC(C)(C)C1CC2 (stereo partly drawn)	> 100 µM	80.8 µM	> 100 µM	> 100 µM	67.1 µM	> 100 µM	55.7 µM	> 100 µM	> 100 µM	> 100 µM	–	–
O=c1c(C(c2ccc(Cl)cc2)c2c(O)c3ccccc3n(-c3ccccc3)c2=O)c(O)c2ccccc2n1-c1ccccc1	> 100 µM	> 100 µM	> 100 µM	> 100 µM	> 100 µM	> 100 µM	–	> 100 µM	> 100 µM	> 100 µM	–	–
Nc1ccc(S2(c3ccc(N)cc3)C=C(c3ccccc3)C(c3ccccc3)=C2)cc1	> 100 µM	–	–	> 100 µM	–	–	> 100 µM	> 100 µM	> 100 µM	> 22.6 µM	> 100 µM	> 100 µM
Cn1c(COC(=O)Nc2ccccc2)c(COC(=O)Nc2ccccc2)c2ccc3cc(Cl)c(Cl)cc3c21	24.1 µM	–	–	21.9 µM	–	–	19.2 µM	40.7 µM	13.5 µM	3.09 µM	66.7 µM	5.41 µM
COC1C=COC2(C)Oc3c(C)c(O)c4c(O)c(c(C5SCCS5)c(O)c4c3C2=O)NC(=O)C(C)=C/C=C\C(C)C2OC(C)(C)OC(C2C)C(C)C(OC(C)=O)C1C (stereo not drawn)	> 100 µM	–	–	29.3 µM	–	–	> 100 µM	15 µM	28.3 µM	27.7 µM	> 100 µM	> 100 µM
CCC/C(Cl)=N\OC(=O)Nc1ccc(OC(F)(F)F)cc1	35.9 µM	–	–	> 84.7 µM	–	–	35.8 µM	48.7 µM	8.78 µM	3.05 µM	> 25.3 µM	7.65 µM
C#C[C@]1(O)CC[C@H]2[C@@H]3CCC4=C/C(=N/OC(=O)c5cccc6c(=O)c7ccccc7[nH]c56)CC[C@@H]4[C@H]3CC[C@@]21C	> 100 µM	–	–	> 100 µM	–	–	> 100 µM	> 100 µM	> 100 µM	> 100 µM	> 100 µM	91.1 µM
CCOC(=O)NC(Nc1cccc(C(F)(F)F)c1)(C(F)(F)F)C(F)(F)F	> 100 µM	–	–	> 100 µM	–	–	> 100 µM	> 100 µM	> 100 µM	> 100 µM	> 100 µM	> 100 µM
O=c1oc2ccc([N+](=O)[O-])cc2c(Nc2ccc3c(c2)Oc2ccccc2O3)c1[N+](=O)[O-]	> 100 µM	–	–	> 100 µM	–	–	> 100 µM	> 100 µM	94 µM	> 100 µM	> 100 µM	> 100 µM
CC(=O)[C@@]1(O)CC[C@H]2[C@@H]3C[C@H](C)C4=CC(=O)C=C[C@]4(C)[C@@]3(F)[C@@H](O)C[C@@]21C	> 100 µM	> 100 µM	> 100 µM	> 100 µM	> 100 µM	> 100 µM	> 91.9 µM	> 100 µM	> 100 µM	> 100 µM	> 100 µM	> 100 µM
